# In patent publication US10610522B2, “Methods for retreating irritable bowel syndrome (IBS)” (Salix Pharmaceuticals, Inc., priority 2014, dated 2020):
# System: C. difficile infection (CDI)
# Assay: Double-blind non-inferiority trial rifaximin 400 mg TID vs vancomycin 125 mg QID, 10 days, C. difficile infection
# Format: in vivo, human
# Procedure: Criteria for entry into the trial were: • Age >=18 years old; • Had acute diarrhea at screening defined as >=3 unformed stools in the last 24 hours and at least one sign of enteric infection (fever, nausea, lose of appetite, vomiting, severe abdominal pain/discomfort); and • a positive C. diff stool toxin assay Endpoint:
# The primary efficacy endpoint of the study was defined as the proportion of subjects achieving clinical success. Specifically, clinical success was defined as the absence of severe abdominal pain at Test of Cure (TOC), absence of fever (<38° C.) at TOC, and <3 unformed stools for two consecutive days at TOC.
# Clinical success was defined as the: Absence of severe abdominal pain at TOC, absence of fever (<38° C.) at TOC, and <3 unformed stools for two consecutive days at TOC. Test of cure defined as Day 14+/−1 day.
# Recurrence was defined to be a diarrhea and a positive C. diff stool toxin assay that occurred after initial clinical success.
# Global cure of diarrhea was defined as subjects who were cured of diarrhea at TOC without recurrence at follow up.
# Subjects who completed the study without achieving clinical success were censored at Day 14
# [1] = Rifaximin N = 117, Vancomycin N = 115
# [2] = adjusting for concomitant medication usage, Rifaximin N = 109, Vancomycin N = 112
# [3] = adjusting for concomitant medication usage, Rifaximin N = 117, Vancomycin N = 115
# [4] = after initial clinical success, Rifaximin N = 67, Vancomycin N = 73
# [5] = all subjects, Rifaximin N = 117, Vancomycin N = 115
# [6] = at TOC, Rifaximin N = 108, Vancomycin N = 111
# [7] = at TOC, Rifaximin N = 117, Vancomycin N = 115
# [8] = cured at TOC without recurrence at follow up, Rifaximin N = 117, Vancomycin N = 115
# [9] = subgroup Age <65, at TOC, Rifaximin N = 69, Vancomycin N = 62
# [10] = subgroup Age >=65, at TOC, Rifaximin N = 39, Vancomycin N = 49
# [11] = subgroup Female, at TOC, Rifaximin N = 68, Vancomycin N = 64
# [12] = subgroup Male, at TOC, Rifaximin N = 40, Vancomycin N = 47
smiles,measurement,setting,value
CN[C@H](CC(C)C)C(=O)N[C@H]1C(=O)N[C@@H](CC(N)=O)C(=O)N[C@H]2C(=O)N[C@H]3C(=O)N[C@H](C(=O)N[C@H](C(=O)O)c4cc(O)cc(O)c4-c4cc3ccc4O)[C@H](O)c3ccc(c(Cl)c3)Oc3cc2cc(c3O[C@@H]2O[C@H](CO)[C@@H](O)[C@H](O)[C@H]2O[C@H]2C[C@](C)(N)[C@H](O)[C@H](C)O2)Oc2ccc(cc2Cl)[C@H]1O [Vancomycin],Continuing Illness No: % of subjects,[1],86%
same,Continuing Illness No: number of subjects,[1],99
same,Continuing Illness Yes: % of subjects,[1],14%
same,Continuing Illness Yes: number of subjects,[1],16
same,Global Cure of Diarrhea No: % of subjects,[1],26%
same,Global Cure of Diarrhea No: number of subjects,[1],30
same,Diarrhea No: % of subjects,[2],73%
same,Diarrhea No: number of subjects,[2],82
same,Diarrhea Yes: % of subjects,[2],27%
same,Diarrhea Yes: number of subjects,[2],30
same,Clinical Success No: % of subjects,[3],40%
same,Clinical Success No: number of subjects,[3],46
same,Clinical Success Yes: % of subjects,[3],60%
same,Clinical Success Yes: number of subjects,[3],69
same,No Recurrence of CDI: % of subjects,[4],86%
same,No Recurrence of CDI: number of subjects,[4],63
same,Recurrence of CDI: % of subjects,[4],14%
same,Recurrence of CDI: number of subjects,[4],10
same,Recurrence No: % of subjects,[5],93%
same,Recurrence No: number of subjects,[5],105
same,Recurrence Yes: % of subjects,[5],7%
same,Recurrence Yes: number of subjects,[5],10
same,Diarrhea No: % of subjects,[6],81%
same,Diarrhea No: number of subjects,[6],90
same,Diarrhea Yes: % of subjects,[6],19%
same,Diarrhea Yes: number of subjects,[6],21
same,Fever No: % of subjects,[6],98%
same,Fever No: number of subjects,[6],109
same,Fever Yes: % of subjects,[6],2 (2%)
same,Fever Yes: number of subjects,[6],2 (2%)
same,Severe Abdominal Pain/Discomfort No: % of subjects,[6],86%
same,Severe Abdominal Pain/Discomfort No: number of subjects,[6],95
same,Severe Abdominal Pain/Discomfort Yes: % of subjects,[6],14%
same,Severe Abdominal Pain/Discomfort Yes: number of subjects,[6],16
same,Clinical Success No: % of subjects,[7],37%
same,Clinical Success No: number of subjects,[7],42
same,Clinical Success Yes: % of subjects,[7],64%
same,Clinical Success Yes: number of subjects,[7],73
same,Global Cure of Diarrhea Yes: % of subjects,[8],74%
same,Global Cure of Diarrhea Yes: number of subjects,[8],85
same,Adjusted mean number of unformed stools-ANOVA,"during the treatment period, Rifaximin N = 117, Vancomycin N = 115",1.90
same,Diarrhea: % of subjects,[9],19%
same,Diarrhea: number of subjects,[9],12
same,No Diarrhea: % of subjects,[9],81%
same,No Diarrhea: number of subjects,[9],50
same,Diarrhea: % of subjects,[10],18%
same,Diarrhea: number of subjects,[10],9
same,No Diarrhea: % of subjects,[10],82%
same,No Diarrhea: number of subjects,[10],40
same,Diarrhea: % of subjects,[11],17%
same,Diarrhea: number of subjects,[11],11
same,No Diarrhea: % of subjects,[11],83%
same,No Diarrhea: number of subjects,[11],53
same,Diarrhea: % of subjects,[12],21%
same,Diarrhea: number of subjects,[12],10
same,No Diarrhea: % of subjects,[12],79%
same,No Diarrhea: number of subjects,[12],37
